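Abbreviation: GI50, concentration required for 50% inhibition of growth. TGI: total growth inhibition.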
Assays:
Assay in all cases: NCI anticancer screen, dose series, 384-well format
NCI-H522 lung = test system: NCI-H522 lung
BT-549 breast = test system: BT-549 breast
A498 renal = test system: A498 renal
NCI-H226 lung = test system: NCI-H226 lung
SF-295 CNS = test system: SF-295 CNS
IGROV1 ovarian = test system: IGROV1 ovarian
UACC-257 melanoma = test system: UACC-257 melanoma
MDA-MB-435 melanoma = test system: MDA-MB-435 melanoma
RXF 393 renal = test system: RXF 393 renal
K-562 leukemia = test system: K-562 leukemia
RPMI-8226 leukemia = test system: RPMI-8226 leukemia
SF-268 CNS = test system: SF-268 CNS
NCI/ADR-RES ovarian = test system: NCI/ADR-RES ovarian
OVCAR-4 ovarian = test system: OVCAR-4 ovarian
OVCAR-8 ovarian = test system: OVCAR-8 ovarian
SN12C renal = test system: SN12C renal
T-47D breast = test system: T-47D breast
COLO 205 colon = test system: COLO 205 colon
HOP-92 NSCLC = test system: HOP-92 NSCLC
MCF7 breast = test system: MCF7 breast
SNB-19 CNS = test system: SNB-19 CNS
HS 578T breast = test system: HS 578T breast
HOP-62 NSCLC = test system: HOP-62 NSCLC
SNB-75 CNS = test system: SNB-75 CNS
A549 NSCLC = test system: A549 NSCLC
DU-145 prostate = test system: DU-145 prostate
OVCAR-5 ovarian = test system: OVCAR-5 ovarian
SK-OV-3 ovarian = test system: SK-OV-3 ovarian
KM12 colon = test system: KM12 colon
CAKI-1 renal = test system: CAKI-1 renal
HT29 colon = test system: HT29 colon
UACC-62 melanoma = test system: UACC-62 melanoma
HCT-15 colon = test system: HCT-15 colon
HCC-2998 colon = test system: HCC-2998 colon
SF-539 CNS = test system: SF-539 CNS
OVCAR-3 ovarian = test system: OVCAR-3 ovarian
PC-3 prostate = test system: PC-3 prostate
NCI-H322M lung = test system: NCI-H322M lung
M14 melanoma = test system: M14 melanoma
TK-10 renal = test system: TK-10 renal
CCRF-CEM leukemia = test system: CCRF-CEM leukemia
SK-MEL-28 melanoma = test system: SK-MEL-28 melanoma
MDA-MB-231 breast = test system: MDA-MB-231 breast
MOLT-4 leukemia = test system: MOLT-4 leukemia
UO-31 renal = test system: UO-31 renal
MDA-MB-468 breast = test system: MDA-MB-468 breast
LOX IMVI melanoma = test system: LOX IMVI melanoma
HL-60(TB) leukemia = test system: HL-60(TB) leukemia
MALME-3M melanoma = test system: MALME-3M melanoma
NCI-H23 lung = test system: NCI-H23 lung
NCI-H460 NSCLC = test system: NCI-H460 NSCLC
SW-620 colon = test system: SW-620 colon
EKVX NSCLC = test system: EKVX NSCLC
SK-MEL-5 melanoma = test system: SK-MEL-5 melanoma
786-0 renal = test system: 786-0 renal
ACHN renal = test system: ACHN renal
SR leukemia = test system: SR leukemia
U251 glioblastoma = test system: U251 glioblastoma

In the case of `COCCn1c2c([n+](Cc3cnccn3)c1C)C(=O)c1ccccc1C2=O`, the GI50 (NCI-H522 lung) is reported as less than 0.01 µM, the TGI (NCI-H522 lung) is reported as less than 0.01 µM and the GI50 (BT-549 breast) is reported as less than 0.01 µM. For the same compound, the TGI (BT-549 breast) was less than 0.01 µM, the GI50 (A498 renal) was 0.159 µM and the TGI (A498 renal) was 1.23 µM. The GI50 (NCI-H226 lung) was 0.0114 µM, the TGI (NCI-H226 lung) was 0.0404 µM and the GI50 (SF-295 CNS) was 0.0104 µM. It also gave a TGI (SF-295 CNS) of 0.0225 µM, a GI50 (IGROV1 ovarian) of less than 0.01 µM and a TGI (IGROV1 ovarian) of less than 0.01 µM. It also gave a GI50 (UACC-257 melanoma) of less than 0.01 µM, a TGI (UACC-257 melanoma) of less than 0.01 µM and a GI50 (MDA-MB-435 melanoma) of less than 0.01 µM. It also gave a TGI (MDA-MB-435 melanoma) of less than 0.01 µM, a GI50 (RXF 393 renal) of less than 0.01 µM and a TGI (RXF 393 renal) of 0.0121 µM. For the same compound, the GI50 (K-562 leukemia) was less than 0.01 µM, the TGI (K-562 leukemia) was less than 0.01 µM and the GI50 (RPMI-8226 leukemia) was less than 0.01 µM. The TGI (RPMI-8226 leukemia) was less than 0.01 µM, the GI50 (SF-268 CNS) was less than 0.01 µM and the TGI (SF-268 CNS) was less than 0.01 µM. The GI50 (NCI/ADR-RES ovarian) was 18.8 µM, the TGI (NCI/ADR-RES ovarian) was greater than 100 µM and the GI50 (OVCAR-4 ovarian) was less than 0.01 µM. For the same compound, the TGI (OVCAR-4 ovarian) was less than 0.01 µM, the GI50 (OVCAR-8 ovarian) was less than 0.01 µM and the TGI (OVCAR-8 ovarian) was less than 0.01 µM. For the same compound, the GI50 (SN12C renal) was less than 0.01 µM, the TGI (SN12C renal) was less than 0.01 µM and the GI50 (T-47D breast) was less than 0.01 µM. The TGI (T-47D breast) was less than 0.01 µM, the GI50 (COLO 205 colon) was less than 0.01 µM and the TGI (COLO 205 colon) was 0.011 µM. The GI50 (HOP-92 NSCLC) was less than 0.01 µM, the TGI (HOP-92 NSCLC) was less than 0.01 µM and the GI50 (MCF7 breast) was less than 0.01 µM. The TGI (MCF7 breast) was less than 0.01 µM, the GI50 (SNB-19 CNS) was less than 0.01 µM and the TGI (SNB-19 CNS) was less than 0.01 µM. It also gave a GI50 (HS 578T breast) of 0.0198 µM, a TGI (HS 578T breast) of 0.125 µM and a GI50 (HOP-62 NSCLC) of less than 0.01 µM. It also gave a TGI (HOP-62 NSCLC) of 0.0152 µM, a GI50 (SNB-75 CNS) of less than 0.01 µM and a TGI (SNB-75 CNS) of less than 0.01 µM. It also gave a GI50 (A549 NSCLC) of less than 0.01 µM, a TGI (A549 NSCLC) of 0.0129 µM and a GI50 (DU-145 prostate) of less than 0.01 µM. It also gave a TGI (DU-145 prostate) of less than 0.01 µM, a GI50 (OVCAR-5 ovarian) of less than 0.01 µM and a TGI (OVCAR-5 ovarian) of 0.0165 µM. The GI50 (SK-OV-3 ovarian) was less than 0.01 µM, the TGI (SK-OV-3 ovarian) was less than 0.01 µM and the GI50 (KM12 colon) was 0.026 µM. The TGI (KM12 colon) was 0.114 µM, the GI50 (CAKI-1 renal) was less than 0.01 µM and the TGI (CAKI-1 renal) was less than 0.01 µM. For the same compound, the GI50 (HT29 colon) was 0.018 µM, the TGI (HT29 colon) was 0.0554 µM and the GI50 (UACC-62 melanoma) was less than 0.01 µM. For the same compound, the TGI (UACC-62 melanoma) was less than 0.01 µM, the GI50 (HCT-15 colon) was 0.0403 µM and the TGI (HCT-15 colon) was 0.735 µM. It also gave a GI50 (HCC-2998 colon) of less than 0.01 µM, a TGI (HCC-2998 colon) of 0.0143 µM and a GI50 (SF-539 CNS) of less than 0.01 µM. The TGI (SF-539 CNS) was less than 0.01 µM, the GI50 (OVCAR-3 ovarian) was less than 0.01 µM and the TGI (OVCAR-3 ovarian) was less than 0.01 µM. The GI50 (PC-3 prostate) was less than 0.01 µM, the TGI (PC-3 prostate) was less than 0.01 µM and the GI50 (NCI-H322M lung) was less than 0.01 µM. It also gave a TGI (NCI-H322M lung) of 0.0259 µM, a GI50 (M14 melanoma) of less than 0.01 µM and a TGI (M14 melanoma) of 0.012 µM. It also gave a GI50 (TK-10 renal) of less than 0.01 µM, a TGI (TK-10 renal) of 0.024 µM and a GI50 (CCRF-CEM leukemia) of less than 0.01 µM. The TGI (CCRF-CEM leukemia) was 0.0165 µM, the GI50 (SK-MEL-28 melanoma) was less than 0.01 µM and the TGI (SK-MEL-28 melanoma) was less than 0.01 µM. It also gave a GI50 (MDA-MB-231 breast) of less than 0.01 µM, a TGI (MDA-MB-231 breast) of less than 0.01 µM and a GI50 (MOLT-4 leukemia) of less than 0.01 µM. The TGI (MOLT-4 leukemia) was less than 0.01 µM, the GI50 (UO-31 renal) was 0.377 µM and the TGI (UO-31 renal) was 7.73 µM. The GI50 (MDA-MB-468 breast) was less than 0.01 µM, the TGI (MDA-MB-468 breast) was less than 0.01 µM and the GI50 (LOX IMVI melanoma) was less than 0.01 µM. For the same compound, the TGI (LOX IMVI melanoma) was less than 0.01 µM, the GI50 (HL-60(TB) leukemia) was less than 0.01 µM and the TGI (HL-60(TB) leukemia) was less than 0.01 µM. The GI50 (MALME-3M melanoma) was 0.0161 µM, the TGI (MALME-3M melanoma) was 0.0379 µM and the GI50 (NCI-H23 lung) was less than 0.01 µM. The TGI (NCI-H23 lung) was less than 0.01 µM, the GI50 (NCI-H460 NSCLC) was less than 0.01 µM and the TGI (NCI-H460 NSCLC) was 0.0122 µM. For the same compound, the GI50 (SW-620 colon) was less than 0.01 µM, the TGI (SW-620 colon) was 0.0103 µM and the GI50 (EKVX NSCLC) was less than 0.01 µM. It also gave a TGI (EKVX NSCLC) of less than 0.01 µM, a GI50 (SK-MEL-5 melanoma) of less than 0.01 µM and a TGI (SK-MEL-5 melanoma) of less than 0.01 µM. The GI50 ([…]-0 renal) was less than 0.01 µM, the TGI (786-0 renal) was 0.013 µM and the GI50 (ACHN renal) was 0.0176 µM. The TGI (ACHN renal) was 0.0457 µM, the GI50 (SR leukemia) was less than 0.01 µM and the TGI (SR leukemia) was less than 0.01 µM. The GI50 (U251 glioblastoma) was less than 0.01 µM and the TGI (U251 glioblastoma) was less than 0.01 µM.

— PubChem BioAssay (NCI)
